# Test results from patent US11077194B2, “Nitric oxide releasing pharmaceutical compositions” (Novan, Inc., priority 2012, dated 2021).
# Marks after values point to notes of the source that are not given here.
# System: oxazolone-induced ear swelling
# Assay: Oxazolone-induced ear swelling assay (model of allergic contact dermatitis)
# Format: in vivo, BALB/c mice
# Settings: TOP
# Description: Groups of 5 BALB/c male mice weighing 22±2 g were used. The animals were sensitized by application of oxazolone (100 μL, 1.5% in acetone) to their preshaved abdominal surface. Seven days later, test substances (20 mg/ear) and vehicle (20 μL/ear) were applied topically to the anterior and posterior surfaces of the right ear 30 min before and 15 min after oxazolone (1%, 20 μL/ear) challenge. Ear swelling was measured with a Dyer model micrometer gauge at 24 hours after oxazolone challenge as an index of inflammation. Ear edema was calculated by subtracting the thickness of the left ear (normal control) from the right ear (treated ear). Percent inhibition was calculated according to the formula: (Ic−It)/Ic×100, where Ic and It refers to increase of ear thickness (mm) in control and treated mice, respectively. One-way ANOVA and Dunnett's test were used to determine statistical significance between vehicle control and treated groups. Significance is set at P<0.05.
# Test articles (0.2% and 2% Nitricil™ NVN1 Ointment) described in Example 6 were evaluated for possible anti-inflammatory activity in the oxazolone-induced ear swelling assay in BALB/c mice, a model of allergic contact dermatitis. Test substances and vehicles were each administered topically (TOP) at 30 minutes before and 15 minutes after challenge with the second application of oxazolone.
# The test system used was a 7-day oxazolone-induced ear swelling assay. Oxazolone-induced ear swelling is useful as a model of inflammation. […] Ear swelling was measured with a Dyer model micrometer gauge at 24 hours after oxazolone challenge as an index of inflammation. Ear edema was calculated by subtracting the thickness of the left ear (normal control) from the right ear (treated ear) (Table 18). […]
# Percent inhibition was calculated according to the formula: (Ic−It)/Ic×100, where Ic and It refer to increase of ear thickness (mm) in control and treated mice, respectively. […]
compound,measurement,setting,value
C[C@@H]1C[C@H]2[C@@H]3CCC4=CC(=O)C=C[C@]4(C)[C@@]3(F)[C@@H](O)C[C@]2(C)[C@@]1(O)C(=O)CO [Dexamethasone],"Ear Swelling % Inhibition (vs. Vehicle A, acetone/ethanol 1/1)","Example 7 study, ointments 20 mg/ear × 2, dexamethasone 0.3 mg/ear × 2, 24 hours after challenge",85* %
same,% inhibition of oxazolone-induced ear swelling vs acetone/ethanol vehicle,"Example 9 study, ointments 20 mg/ear × 2, dexamethasone 0.1 mg/ear × 2",86%
same,Net Swelling on Right Ear (Mean ± SEM),"Example 9 study, ointments 20 mg/ear × 2, dexamethasone 0.1 mg/ear × 2, 24 hours after challenge",3.2 ± 0.4 × 0.01 mm
